Like-named read-outs stand apart in the source and are kept apart here.
Experiments:
RSV RNP complex = RSV RNP complex (Human respiratory syncytial virus A, UniProt P28887); experiment: biochemical; assay type: biochemical; conditions: for IC50: read-out: RSV polymerase inhibition class (IC50, RSV RNP complex)
HCV polymerase = HCV polymerase (Hepatitis C virus genotype 1b, UniProt Q9WMX2); experiment: HCV polymerase inhibition assay; assay type: biochemical; conditions: for IC50: read-out: HCV polymerase inhibition class (IC50)
HCV polymerase, sequence (Q9WMX2 2420-3010): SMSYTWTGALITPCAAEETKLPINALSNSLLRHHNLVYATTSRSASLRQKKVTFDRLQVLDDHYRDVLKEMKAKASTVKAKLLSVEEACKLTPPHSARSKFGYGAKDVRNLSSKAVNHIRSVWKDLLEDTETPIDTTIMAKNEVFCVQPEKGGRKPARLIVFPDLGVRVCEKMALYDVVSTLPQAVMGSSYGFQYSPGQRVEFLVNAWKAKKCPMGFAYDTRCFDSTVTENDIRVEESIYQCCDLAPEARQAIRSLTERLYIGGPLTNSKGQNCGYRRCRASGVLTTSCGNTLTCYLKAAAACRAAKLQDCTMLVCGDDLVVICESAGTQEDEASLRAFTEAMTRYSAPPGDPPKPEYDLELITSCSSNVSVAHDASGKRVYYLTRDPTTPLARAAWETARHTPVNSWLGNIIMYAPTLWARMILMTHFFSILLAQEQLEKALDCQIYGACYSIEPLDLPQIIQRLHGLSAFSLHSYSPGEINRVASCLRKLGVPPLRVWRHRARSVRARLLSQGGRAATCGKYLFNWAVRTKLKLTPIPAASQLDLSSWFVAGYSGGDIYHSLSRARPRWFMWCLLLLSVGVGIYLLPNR

[1] = molecular target: T1, wild-type RSV L-P RNA polymerase complex (Human respiratory syncytial virus A, UniProt P28887); assay type: biochemical
T1 construct: made in house; host or cells: insect cells
T1 sequence (P28887 whole entry): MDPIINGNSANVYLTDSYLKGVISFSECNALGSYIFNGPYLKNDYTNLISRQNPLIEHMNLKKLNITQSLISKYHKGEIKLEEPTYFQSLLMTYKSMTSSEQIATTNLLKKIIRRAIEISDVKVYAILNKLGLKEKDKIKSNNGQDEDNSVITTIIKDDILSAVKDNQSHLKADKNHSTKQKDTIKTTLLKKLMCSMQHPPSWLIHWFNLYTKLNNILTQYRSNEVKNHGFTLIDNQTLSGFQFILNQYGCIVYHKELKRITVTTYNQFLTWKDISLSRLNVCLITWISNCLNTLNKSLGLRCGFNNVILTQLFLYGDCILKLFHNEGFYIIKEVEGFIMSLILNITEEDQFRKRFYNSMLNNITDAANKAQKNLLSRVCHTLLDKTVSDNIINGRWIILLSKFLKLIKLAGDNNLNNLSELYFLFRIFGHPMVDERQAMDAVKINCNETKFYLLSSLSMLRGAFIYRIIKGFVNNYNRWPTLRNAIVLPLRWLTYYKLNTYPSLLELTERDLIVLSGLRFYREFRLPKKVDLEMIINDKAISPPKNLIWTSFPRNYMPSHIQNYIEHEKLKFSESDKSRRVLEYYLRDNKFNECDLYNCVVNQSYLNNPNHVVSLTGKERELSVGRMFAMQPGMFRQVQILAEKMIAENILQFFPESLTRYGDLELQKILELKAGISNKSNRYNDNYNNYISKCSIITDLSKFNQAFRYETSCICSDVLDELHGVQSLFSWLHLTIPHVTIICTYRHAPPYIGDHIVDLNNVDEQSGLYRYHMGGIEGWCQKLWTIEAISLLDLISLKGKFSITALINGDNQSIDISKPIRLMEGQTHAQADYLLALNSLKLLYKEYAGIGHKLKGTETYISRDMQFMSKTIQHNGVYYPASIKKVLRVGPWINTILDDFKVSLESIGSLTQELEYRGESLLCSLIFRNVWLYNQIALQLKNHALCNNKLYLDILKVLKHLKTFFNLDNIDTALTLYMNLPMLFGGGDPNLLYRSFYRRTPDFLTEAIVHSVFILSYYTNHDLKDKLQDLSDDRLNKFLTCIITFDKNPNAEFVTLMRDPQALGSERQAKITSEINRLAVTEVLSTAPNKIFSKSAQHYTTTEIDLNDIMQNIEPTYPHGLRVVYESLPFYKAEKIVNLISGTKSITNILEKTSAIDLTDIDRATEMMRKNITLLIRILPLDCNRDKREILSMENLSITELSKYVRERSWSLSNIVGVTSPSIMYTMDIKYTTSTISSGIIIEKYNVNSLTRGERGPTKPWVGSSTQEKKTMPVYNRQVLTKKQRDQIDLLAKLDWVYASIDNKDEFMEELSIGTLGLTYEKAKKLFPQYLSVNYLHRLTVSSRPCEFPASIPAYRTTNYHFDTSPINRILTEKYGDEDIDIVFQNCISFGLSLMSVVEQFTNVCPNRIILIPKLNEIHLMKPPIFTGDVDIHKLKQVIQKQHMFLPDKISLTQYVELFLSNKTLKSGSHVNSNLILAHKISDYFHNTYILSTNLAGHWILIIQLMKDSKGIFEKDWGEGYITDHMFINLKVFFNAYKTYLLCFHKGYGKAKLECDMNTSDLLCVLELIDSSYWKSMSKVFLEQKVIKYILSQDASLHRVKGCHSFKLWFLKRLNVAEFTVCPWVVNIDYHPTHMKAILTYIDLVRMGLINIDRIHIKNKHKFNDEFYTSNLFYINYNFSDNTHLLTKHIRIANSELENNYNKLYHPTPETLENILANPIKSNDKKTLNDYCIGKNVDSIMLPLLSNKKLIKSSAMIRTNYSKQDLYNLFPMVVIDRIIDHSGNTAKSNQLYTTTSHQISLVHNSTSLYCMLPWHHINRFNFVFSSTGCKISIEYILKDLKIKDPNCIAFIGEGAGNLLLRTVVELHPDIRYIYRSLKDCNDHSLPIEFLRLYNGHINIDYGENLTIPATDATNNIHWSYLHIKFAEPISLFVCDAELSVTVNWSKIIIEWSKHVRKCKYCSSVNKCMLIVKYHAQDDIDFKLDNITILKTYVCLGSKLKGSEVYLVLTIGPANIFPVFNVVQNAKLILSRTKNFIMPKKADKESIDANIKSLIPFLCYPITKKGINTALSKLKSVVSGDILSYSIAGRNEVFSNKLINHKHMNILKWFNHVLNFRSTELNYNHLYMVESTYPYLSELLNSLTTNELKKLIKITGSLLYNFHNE
T1 sequence (P03421 whole entry, further chain): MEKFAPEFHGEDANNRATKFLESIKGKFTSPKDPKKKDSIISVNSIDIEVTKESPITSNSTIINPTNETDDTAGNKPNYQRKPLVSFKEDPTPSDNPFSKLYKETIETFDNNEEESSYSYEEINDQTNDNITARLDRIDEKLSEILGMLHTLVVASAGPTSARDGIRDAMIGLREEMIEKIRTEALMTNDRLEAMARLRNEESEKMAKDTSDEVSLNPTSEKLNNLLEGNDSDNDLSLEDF

[2] = molecular target: human mitochondrial RNA polymerase (Homo sapiens, UniProt O00411); experiment: DdRp assay with human mitochondrial RNA polymerase, single turnover; assay type: biochemical; conditions: 100 μM of each NTP
human mitochondrial RNA polymerase, sequence (O00411 42-1230): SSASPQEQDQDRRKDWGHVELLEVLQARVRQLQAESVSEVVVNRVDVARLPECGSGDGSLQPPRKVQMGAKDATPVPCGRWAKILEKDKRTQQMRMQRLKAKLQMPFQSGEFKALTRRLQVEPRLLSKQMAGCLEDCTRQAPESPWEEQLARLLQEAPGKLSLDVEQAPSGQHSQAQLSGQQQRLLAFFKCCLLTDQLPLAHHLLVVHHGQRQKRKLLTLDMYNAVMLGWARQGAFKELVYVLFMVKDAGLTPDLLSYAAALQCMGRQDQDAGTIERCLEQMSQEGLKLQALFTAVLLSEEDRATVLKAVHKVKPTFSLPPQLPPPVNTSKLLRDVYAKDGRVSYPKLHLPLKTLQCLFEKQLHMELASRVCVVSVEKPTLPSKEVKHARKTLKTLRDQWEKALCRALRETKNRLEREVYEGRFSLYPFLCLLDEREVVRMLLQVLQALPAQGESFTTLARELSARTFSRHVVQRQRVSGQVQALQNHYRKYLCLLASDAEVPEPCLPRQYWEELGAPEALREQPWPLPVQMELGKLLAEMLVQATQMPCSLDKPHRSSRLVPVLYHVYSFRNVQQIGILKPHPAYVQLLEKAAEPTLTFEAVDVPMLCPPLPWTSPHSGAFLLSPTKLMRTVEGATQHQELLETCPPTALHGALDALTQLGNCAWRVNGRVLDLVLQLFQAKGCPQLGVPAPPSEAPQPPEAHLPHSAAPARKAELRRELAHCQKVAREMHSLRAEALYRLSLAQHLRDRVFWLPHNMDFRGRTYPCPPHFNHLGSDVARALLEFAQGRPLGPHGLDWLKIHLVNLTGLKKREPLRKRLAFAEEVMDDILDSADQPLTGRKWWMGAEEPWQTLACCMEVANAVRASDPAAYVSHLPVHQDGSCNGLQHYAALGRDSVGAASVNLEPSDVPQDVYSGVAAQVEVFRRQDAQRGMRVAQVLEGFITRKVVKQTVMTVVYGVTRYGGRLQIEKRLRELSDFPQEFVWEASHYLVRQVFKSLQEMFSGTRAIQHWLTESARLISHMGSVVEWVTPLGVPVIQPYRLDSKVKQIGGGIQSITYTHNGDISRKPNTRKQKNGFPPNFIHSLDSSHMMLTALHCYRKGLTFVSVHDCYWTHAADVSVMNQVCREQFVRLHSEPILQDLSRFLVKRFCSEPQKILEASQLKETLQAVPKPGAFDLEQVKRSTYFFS

RSV A2 [3] = experiment: RSV inhibition by qRT-PCR in HEp-2 cells, RSV A2 strain; assay type: cell-based; conditions: human respiratory syncytial virus
RSV B1 = experiment: RSV inhibition by qRT-PCR in HEp-2 cells, RSV B1 strain; assay type: cell-based; conditions: human respiratory syncytial virus, 120 h, 5 days, n = 3, read-out: EC50, inhibition of RNA replication of RSV B1
[4] = system: RSV A and B clinical isolates; experiment: microbe, parasite or virus in culture; assay type: cell-based; conditions: human respiratory syncytial virus
RSV A2 [5] = experiment: Three-dimensional lung model, primary human tracheal/bronchial epithelial cells infected with RSV A2; assay type: cell-based; conditions: human respiratory syncytial virus, Epithelial cell
[6] = molecular target: QUAD-mutant RSV polymerase (Human respiratory syncytial virus A, UniProt P28887, A789V/I796V/L795I/M628L); assay type: cell-based
[7] = system: Parainfluenza virus type-3; experiment: PIV-3 antiviral assay in A549 cells; assay type: cell-based, human PIV-3 C243 strain; conditions: 168 h, 7 days, qRT-PCR
[8] = system: Vesicular stomatitis virus; experiment: microbe, parasite or virus in culture; assay type: cell-based; conditions: A549, 48 h
[9] = system: influenza strain A/WSN/33 (H1N1); experiment: Influenza assay in A549 cells (neuraminidase readout); assay type: cell-based; conditions: Influenza virus, 20h
HCV replicon = experiment: microbe, parasite or virus in culture; assay type: cell-based; conditions: Hepatitis C virus
Rhinovirus 1b = experiment: Human rhinovirus assay in HeLa-OHIO cells (CPE); assay type: cell-based; conditions: Enterovirus
RSV replicon = experiment: RSV subgenomic replicon assay (luciferase); assay type: cell-based, Respiratory syncytial virus
Method: The RSV subgenomic replicon (Apath, Brooklyn, NY, USA) was used as previously described. The HeLa-derived cells containing the stable RSV replicon were cultured in DMEM containing 4500 mg/L D-glucose, L-glutamine, and 110 mg/L sodium pyruvate. The medium was further supplemented with 10% (v/v) FBS (Mediatech), 1% (v/v) penicillin/streptomycin (Mediatech), and 10 μg/mL of Blasticidin (BSD) (Invivogen). Cells were maintained at 37°C in a humidified 5% CO2 atmosphere. On the first day, 5000 RSV replicon cells per well were plated in a 96-well plate. On the following day, compounds to be tested were solubilized in 100% DMSO to 100 × the desired final testing concentration. Cells were incubated with compounds for 7 days at 37°C in a 5% CO2 atmosphere before measurement of the luciferase readout. Cell viability (CC50) was measured with a CellTiter-Glo cell proliferation assay (Promega).

in vitro [10] = conditions: human
in vitro [11] = conditions: human; remark: listed apart in the source
in vitro [12] = conditions: human; remark: listed apart in the source
in vitro [13] = conditions: human; remark: listed apart in the source
RSV A2 [14] = experiment: African Green monkey efficacy model; assay type: in vivo, African Green monkeys (Chlorocebus sabaeus); conditions: oral BID, 200 mg/kg loading then 50 mg/kg, 6 days
[15] = parameters: method as in PMID 25667954; conditions: cited from earlier work
[16] = molecular target: RSV polymerase QUAD mutant (Human respiratory syncytial virus A, UniProt P28887, A789V/I796V/L795I/M628L); experiment: Single nucleotide incorporation by recombinant RSV L-P polymerase, QUAD mutant; assay type: biochemical; conditions: primer extension from the +3 position, n = 2
[17] = HEp-2, Isolate A1997-12-35, RSV A
[18] = HEp-2, Isolate A1998-03-02, RSV A
[19] = HEp-2, Isolate A1998-12-21, RSV A
[20] = HEp-2, Isolate A2000-03-04, RSV A
[21] = HEp-2, Isolate A2001-02-20, RSV A
[22] = HEp-2, Isolate A2001-03-12, RSV A

With `[N-]=[N+]=N[C@]1(COP(=O)(O)OP(=O)(O)OP(=O)(O)O)O[C@@H](n2ccc(N)nc2=O)[C@H](O)[C@@H]1O` [4'N3-CTP, reference compound] the “inhibition of RSV RNP complex (in words)” value (RSV RNP complex; Fig 5B) was “dual RSV/HCV polymerase inhibitors”, the IC50 (RSV RNP complex; first symbol of RSV / HCV) was 100 to 10000 nM and the “inhibition of HCV polymerase (in words)” value (HCV polymerase; Fig 5B) was “dual RSV/HCV polymerase inhibitors”. The IC50 (HCV polymerase; second symbol of RSV / HCV) was < 100 nM, the “substrate and chain termination profile with recombinant RSV polymerase (in words)” value [1] was “both substrates and chain terminators” and the “recognition as substrate by human mitochondrial RNA polymerase (in words)” value [2] was “efficiently incorporated”.
With `Nc1ccn([C@@H]2O[C@@](CO)(CCl)[C@@H](O)[C@H]2F)c(=O)n1` [ALS-8112, 2'-fluoro-4'-chloromethyl (2'F-4'ClCH2) cytidine] the EC50 (RSV A2 [3]; 120 h, HEp-2 cells, 5 days, qRT-PCR, n = 3, read-out: EC50, inhibition of RNA replication of RSV A2) was 153 ± 76 nM, the EC50 (RSV A2 [3]; HEp-2, read-out: EC50) was 150 nM and the EC50 (RSV B1) was 132 ± 55 nM. For the same molecule, the EC50 ([4]; HEp-2, Isolate 1144, RSV B) was 290 ± 20 nM, the EC90 ([4]; HEp-2, Isolate 1144, RSV B) was 1470 ± 220 nM and the EC50 ([4]; HEp-2, Isolate 1262, RSV B) was 110 ± 30 nM. It also gave an EC90 ([4]; HEp-2, Isolate 1262, RSV B) of 2180 ± 270 nM, an EC50 ([4]; HEp-2, Isolate 9320, RSV B) of 90 ± 30 nM and an EC90 ([4]; HEp-2, Isolate 9320, RSV B) of 960 ± 160 nM. The EC50 ([4]; HEp-2, Isolate 18537, RSV B) was 210 ± 60 nM, the EC90 ([4]; HEp-2, Isolate 18537, RSV B) was 990 ± 220 nM and the EC50 [4, 17] was 180 ± 40 nM. For the same molecule, the EC90 [4, 17] was 2460 ± 150 nM, the EC50 [4, 18] was 260 ± 60 nM and the EC90 [4, 18] was 2150 ± 270 nM. It also gave an EC50 [4, 19] of 90 ± 20 nM, an EC90 [4, 19] of 1110 ± 540 nM and an EC50 [4, 20] of 180 ± 20 nM. It also gave an EC90 [4, 20] of 2180 ± 240 nM, an EC50 [4, 21] of 100 ± 10 nM and an EC90 [4, 21] of 1100 ± 530 nM. It also gave an EC50 [4, 22] of 450 ± 70 nM, an EC90 [4, 22] of 2330 ± 350 nM and an EC50 ([4]; HEp-2, Isolate Pep 121, RSV B) of 320 ± 70 nM. It also gave an EC90 ([4]; HEp-2, Isolate Pep 121, RSV B) of 2070 ± 430 nM, an EC50 (RSV A2 [5]; Disease: Asthma, read-out: EC50) of 730 nM and an EC90 (RSV A2 [5]; Disease: Asthma, read-out: EC90) of 2700 nM. The EC50 (RSV A2 [5]; donor one, Disease: None, read-out: EC50) was 370 nM, the EC90 (RSV A2 [5]; donor one, Disease: None, read-out: EC90) was 2700 nM and the EC50 (RSV A2 [5]; donor two, Disease: None, read-out: EC50) was 90 nM. For the same molecule, the EC90 (RSV A2 [5]; donor two, Disease: None, read-out: EC90) was 1300 nM, the EC50 (RSV A2 [5]; range over human donor cells (n = 3), read-out: EC50, RSV RNA replication in donor cells) was 90 to 730 nM and the EC90 (RSV A2 [5]; range over human donor cells (n = 3), read-out: EC90, RSV RNA replication in donor cells) was 1300 to 2700 nM. The “maximum inhibition, QUAD-mutant minigenome” value [6] was “about 60%”, the EC50 [7] was 1300 nM and the EC50 [8] was 3400 nM. For the same molecule, the EC50 [9] was > 100000 nM, the EC50 (HCV replicon; Huh-7, HCV replicon, read-out: HCV EC50) was > 100000 nM and the EC50 (HCV replicon; Huh-7 replicon, read-out: EC50) was > 100000 nM. For the same molecule, the EC50 (Rhinovirus 1b) was > 100000 nM, the EC50 (RSV replicon; human respiratory syncytial virus, RSV replicon) was 150 nM and the CC50 (A549; A549 cells, Influenza virus row) was > 100000 nM. The CC50 (A549; human) was > 100000 nM, the CC50 (in vitro [10]) was > 100000 nM and the CC50 (in vitro [11]) was > 100000 nM. The CC50 (in vitro [12]) was > 100000 nM and the CC50 (in vitro [13]) was > 100000 nM.
With `Nc1ccn([C@@H]2O[C@](CCl)(CI)[C@@H](O)[C@H]2F)c(=O)n1` [ALS-8112-I, 4’-Chloromethyl-2’,5’-dideoxy-2’-fluoro-5’-iodocytidine] the “inhibition of luciferase activity in the RSV replicon (in words)” value (RSV replicon) was “did not significantly inhibit”.
For `CC(C)C(=O)OC[C@@]1(CCl)O[C@@H](n2ccc(N)nc2=O)[C@H](F)[C@@H]1OC(=O)C(C)C` [ALS-8176, 4'-chloromethyl-2'-deoxy-3',5'-di-O-isobutyryl-2'-fluorocytidine], the “difference in RSV RNA titers, vehicle vs treated, BAL” value (RSV A2 [14]; end of treatment) was > 4 log10 copies/mL, the “difference in RSV RNA titers, vehicle vs treated, nasopharyngeal (NP) swab” value (RSV A2 [14]; end of treatment) was “about 3 log10 copies/mL” and the “RSV RNA titer in bronchoalveolar lavage (BAL) samples” value (RSV A2 [14]; end of treatment (Day 5 post-infection), all four animals, LOD 50 copies/mL) was < 50 copies/mL. The oral bioavailability [15] was “high”.
For `C[C@@]1(F)[C@H](O)[C@@H](COP(=O)(O)OP(=O)(O)OP(=O)(O)O)O[C@H]1n1ccc(N)nc1=O` [mericitabine-TP, 2'F-2'Me-CTP, reference compound], the IC50 (RSV RNP complex; first symbol of RSV / HCV) was > 10000 nM, the IC50 (HCV polymerase; second symbol of RSV / HCV) was < 100 nM and the “substrate and chain termination profile with recombinant RSV polymerase (in words)” value ([1]; Fig 5A) was “almost completely inactive”. For the same molecule, the “discrimination relative to natural CTP, WT RSV polymerase” value ([1]; Km CTP analog / Km CTP) was “greater than 5,000 fold” and the “level of incorporation by RSV polymerase” value ([1]; at a concentration of 300 μM) was “less than 20%”.
For “cytidine triphosphate [CTP, reference compound]”, the IC50 (RSV RNP complex) was > 10000 nM, the IC50 (HCV polymerase) was > 10000 nM and the Km ([1]; primer extension from the +3 position, read-out: Km, single nucleotide incorporation, WT RSV L-P) was 0.057 ± 0.009 µM. For the same molecule, the Km [16] was 0.056 ± 0.01 µM.
